Experimental data published in PubChem BioAssay (NCI).
Where “and” joins values, the source holds several entries; their conditions need not be identical. Equal entries are not always repeated.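 Results reflect a 48-hour exposure of cells in 96-well plates to compound at five concentrations. Abbreviation: GI50, concentration required for 50% inhibition of growth. TGI: concentration producing complete growth inhibition.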

Experiments:
Assay in all cases: NCI tumour cell line growth inhibition, 48 h; in the data active = GI50 below about 0.43 µM; inactive = the rest
[1] = tested on: UACC-62 melanoma
[2] = tested on: OVCAR-5 ovarian
[3] = tested on: RPMI-8226 leukemia
[4] = tested on: MDA-MB-435
[5] = tested on: PC-3 prostate
[6] = tested on: T-47D breast
[7] = tested on: TK-10 renal
[8] = tested on: A498 renal
[9] = tested on: SK-MEL-28 melanoma
[10] = tested on: HCT-116 colon
[11] = tested on: LOX IMVI melanoma
[12] = tested on: HL-60(TB) leukemia
[13] = tested on: CAKI-1 renal
[14] = tested on: SNB-75 CNS
[15] = tested on: HT29 colon
[16] = tested on: MCF7 breast
[17] = tested on: 786-0 renal
[18] = tested on: UACC-257 melanoma
[19] = tested on: NCI-H460 lung
[20] = tested on: NCI-H23 lung
[21] = tested on: SW-620 colon
[22] = tested on: MDA-MB-231 breast
[23] = tested on: SK-MEL-2 melanoma
[24] = tested on: HOP-92 NSCLC
[25] = tested on: OVCAR-3 ovarian
[26] = tested on: HOP-62 NSCLC
[27] = tested on: CCRF-CEM leukemia
[28] = tested on: NCI-H522 lung
[29] = tested on: M14 melanoma
[30] = tested on: DU-145 prostate
[31] = tested on: A549 NSCLC
[32] = tested on: OVCAR-4 ovarian
[33] = tested on: SK-OV-3 ovarian
[34] = tested on: ACHN renal
[35] = tested on: MOLT-4 leukemia
[36] = tested on: OVCAR-8 ovarian
[37] = tested on: MALME-3M melanoma
[38] = tested on: K-562 leukemia
[39] = tested on: NCI/ADR-RES ovarian
[40] = tested on: SK-MEL-5 melanoma
[41] = tested on: SN12C renal
[42] = tested on: IGROV1 ovarian
[43] = tested on: UO-31 renal
[44] = tested on: HCT-15 colon
[45] = tested on: U251 CNS
[46] = tested on: SF-539 CNS
[47] = tested on: KM12 colon
[48] = tested on: SR leukemia
[49] = tested on: HCC-2998 colon
[50] = tested on: NCI-H226 lung
[51] = tested on: RXF 393 renal
[52] = tested on: BT-549 breast
[53] = tested on: HS 578T breast
[54] = tested on: SNB-19 CNS
[55] = tested on: COLO 205 colon
[56] = tested on: SF-268 CNS
[57] = tested on: SF-295 CNS
[58] = tested on: EKVX NSCLC

CCCCCc1c(C)[nH]c(/C=C2\N=C(c3ccc[nH]3)C=C2Oc2ccccc2)c1C
1160 nM and 1050 nM: TGI [19]
265 nM and 1220 nM: TGI [32]
538 nM and 1050 nM: TGI [52]
29.5 nM and 18.1 nM: TGI [22]
71.9 nM and 55.9 nM: TGI [14]
204 nM and 115 nM: TGI [37]
1890 nM and 1180 nM: TGI [26]
129 nM and 104 nM: TGI [30]
31.2 nM: TGI [11]
1070 nM and 377 nM: TGI [2]
1490 nM and 1230 nM: TGI [42]
671 nM and 628 nM: TGI [33]
79.8 nM and 41.3 nM: TGI [44]
217 nM and 1000 nM: TGI [49]
355 nM and 78.3 nM: TGI [35]
106 nM: TGI [57]
101 nM and 168 nM: TGI [28]
50.4 nM and 32.2 nM: TGI [29]
232 nM and 144 nM: TGI [41]
343 nM and 65.6 nM: TGI [12]
56.9 nM and 40.1 nM: TGI [31]
85.6 nM and 38.7 nM: TGI [46]
1370 nM and 1300 nM: TGI [15]
255 nM and 174 nM: TGI [39]
69 nM and 50.8 nM: TGI [8]
109 nM and 24 nM: TGI [43]
442 nM and 1050 nM: TGI [16]
104 nM and 27.9 nM: TGI [45]
1210 nM and 2160 nM: TGI [27]
111 nM: TGI [34]
31.1 nM and 27.4 nM: TGI [1]
92.5 nM and 48.7 nM: TGI [53]
448 nM and 152 nM: TGI [7]
64.2 nM and 40.4 nM: TGI [25]
40.2 nM and 32.9 nM: TGI [23]
138 nM and 56.7 nM: TGI [36]
58 nM: TGI [4]
1240 nM and 1000 nM: TGI [56]
57.7 nM and 32.6 nM: TGI [24]
668 nM and 387 nM: TGI [20]
55.8 nM and 40.4 nM: TGI [13]
1220 nM and 166 nM: TGI [5]
43.9 nM and 45.7 nM: TGI [17]
active: GI50 [1] 16.1 nM and 11.1 nM | GI50 [2] 26.2 nM and 10.9 nM | GI50 [3] 22.2 nM | GI50 [4] 21.8 nM | GI50 [5] 30.6 nM | GI50 [6] 21.1 nM and 14.7 nM | GI50 [7] 44.6 nM and 23.4 nM | GI50 [8] 16.1 nM and 12.7 nM | GI50 [9] 39.8 nM and 21.1 nM | GI50 [10] 22.8 nM | GI50 [11] 14.3 nM | GI50 [12] 38.4 nM and 15 nM | GI50 [13] 23.3 nM | GI50 [14] 24.6 nM and 17.5 nM | GI50 [15] 22.6 nM | GI50 [16] 32.6 nM | GI50 [17] 17.2 nM and 11.8 nM | GI50 [18] 45.4 nM and 30 nM | GI50 [19] 23.1 nM | GI50 [20] 29.9 nM and 16 nM | GI50 [21] 24.8 nM | GI50 [22] 5.56 nM | GI50 [23] 17.9 nM and 13.9 nM | GI50 [24] 13.8 nM | GI50 [25] 19.1 nM and 12.2 nM | GI50 [26] 32.2 nM and 27.2 nM | GI50 [27] 9.49 nM | GI50 [28] 18.2 nM and 18.1 nM | GI50 [29] 21.3 nM and 10.3 nM | GI50 [30] 17.7 nM | GI50 [31] 22 nM and 11.7 nM | GI50 [32] 11.3 nM | GI50 [33] 56.5 nM and 30.9 nM | GI50 [34] 17.3 nM | GI50 [35] 25.4 nM and 13 nM | GI50 [36] 27.7 nM and 15 nM | GI50 [37] 42.4 nM and 28.6 nM | GI50 [38] 26.3 nM | GI50 [39] 48.6 nM and 27.8 nM | GI50 [40] 16.7 nM and 10.9 nM | GI50 [41] 36.3 nM and 18 nM | GI50 [42] 39.1 nM and 24.4 nM | GI50 [43] 25.1 nM and 10.4 nM | GI50 [44] 19.6 nM | GI50 [45] 19 nM | GI50 [46] 24.2 nM and 11.3 nM | GI50 [47] 11.3 nM | GI50 [48] 11.7 nM | GI50 [49] 17.1 nM | GI50 [50] 19.1 nM and 74.5 nM | GI50 [51] 17.2 nM and 12.3 nM | GI50 [52] 40.2 nM and 28.3 nM | GI50 [53] 21.3 nM and 11.1 nM | GI50 [54] 58.2 nM and 38.7 nM | GI50 [55] 30.5 nM | GI50 [56] 23.4 nM | GI50 [57] 24.4 nM
3410 nM: TGI [38]
187 nM and 182 nM: TGI [3]
157 nM and 54.6 nM: TGI [51]
192 nM and 101 nM: TGI [9]
49.4 nM and 13.8 nM: TGI [47]
34 nM and 24 nM: TGI [40]
129 nM: TGI [10]
354 nM and 233 nM: TGI [18]
193 nM and 49.2 nM: TGI [55]
1460 nM and 1440 nM: TGI [54]

COc1cc2c(cc1OCCCNC(=O)/C=C1/C[C@H]3C=Nc4cc(OCc5ccccc5)c(OC)cc4C(=O)N3C1)NC(=O)[C@@H]1CCCN1C2=O
> 100000 nM: TGI [58] | TGI [1] | TGI [2] | TGI [3] | TGI [4] | TGI [5] | TGI [6] | TGI [7] | TGI [8] | TGI [9] | TGI [10] | TGI [11] | TGI [12] | TGI [13] | TGI [15] | TGI [16] | TGI [17] | TGI [18] | TGI [19] | TGI [20] | TGI [21] | TGI [22] | TGI [24] | TGI [25] | TGI [26] | TGI [27] | TGI [28] | TGI [29] | TGI [30] | TGI [31] | TGI [32] | TGI [34] | TGI [35] | TGI [36] | TGI [37] | TGI [38] | TGI [39] | TGI [41] | TGI [42] | TGI [43] | TGI [44] | TGI [45] | TGI [47] | TGI [49] | TGI [50] | TGI [51] | TGI [53] | TGI [54] | TGI [55] | TGI [56] | TGI [57]
inactive: GI50 [58] > 100000 nM | GI50 [1] 55200 nM | GI50 [2] 93500 nM | GI50 [3] 43600 nM | GI50 [4] 44200 nM | GI50 [5] 77300 nM | GI50 [6] > 100000 nM | GI50 [7] > 100000 nM | GI50 [8] 58900 nM | GI50 [9] > 100000 nM | GI50 [10] 73700 nM | GI50 [11] 43300 nM | GI50 [12] 51900 nM | GI50 [13] > 100000 nM | GI50 [14] 32700 nM | GI50 [15] 45200 nM | GI50 [16] 32000 nM | GI50 [17] 51000 nM | GI50 [18] > 100000 nM | GI50 [19] 38900 nM | GI50 [20] > 100000 nM | GI50 [21] 33300 nM | GI50 [22] 50900 nM | GI50 [24] 47200 nM | GI50 [25] > 100000 nM | GI50 [26] 41300 nM | GI50 [27] 40800 nM | GI50 [28] 31300 nM | GI50 [29] 55300 nM | GI50 [30] 52100 nM | GI50 [31] > 100000 nM | GI50 [32] 73800 nM | GI50 [34] > 100000 nM | GI50 [35] 29600 nM | GI50 [36] > 100000 nM | GI50 [37] > 100000 nM | GI50 [38] 82800 nM | GI50 [39] > 100000 nM | GI50 [40] 22500 nM | GI50 [41] 18400 nM | GI50 [42] > 100000 nM | GI50 [43] > 100000 nM | GI50 [44] > 100000 nM | GI50 [45] 33300 nM | GI50 [46] 32400 nM | GI50 [47] 47500 nM | GI50 [48] 17500 nM | GI50 [49] 60300 nM | GI50 [50] 69500 nM | GI50 [51] 33600 nM | GI50 [52] 23900 nM | GI50 [53] 34400 nM | GI50 [54] 43300 nM | GI50 [55] 54600 nM | GI50 [56] 39600 nM | GI50 [57] 84700 nM
53500 nM: TGI [52]
98100 nM: TGI [14]
49200 nM: TGI [48]
68100 nM: TGI [40]
85500 nM: TGI [46]
